Test results as given in article PMC7336998, “Discovery of secondary sulphonamides as IDO1 inhibitors with potent antitumour effects in vivo” (Journal of Enzyme Inhibition and Medicinal Chemistry, 2020).

Tested on: B16F1 melanoma
Assay: B16F1 melanoma xenograft in BALB/c mice
Format: in vivo, mouse
Method: BALB/c mice (6–8 weeks old, 18–22 g) were supplied by Model Animal Research Centre of Nanjing University (Nanjing, China). Mice were maintained under standard specific-pathogen-free (SPF) conditions (21 ± 2 °C and 12-h light: dark cycle). Animal welfare and experimental procedures were carried out strictly in accordance with the Guide for the Care and Use of Laboratory Animals (The Ministry of Science and Technology of China, 2006) and the related ethical regulations of our university. All efforts were made to minimise animals’ suffering and to reduce the number of animals used. Mouse colon cancer cells (CT26) and melanoma cells (B16F1) were cultured and collected by centrifugation (1000 rpm, 5 min) and washed twice with ice-cold PBS. Then cells were diluted to 1 × 10^7/ml and 1 × 10^6 CT26/B16F1 cells (in 0.1 ml PBS) were injected subcutaneously into the right flanks of mice. All mice formed tumours three days after injection. Then mice were randomly distributed into five groups (n = 10/8) according to tumour volumes. 5d ([…], 12.5 mg/kg) were administered (i.g) to each group respectively every day. 5-FU (25 mg/kg) and Cis-platinum (1 mg/kg) were administered (i.p) every three days. Tumour length and tumour width were measured with a Vernier calliper every three days. Tumour volumes were measured and calculated using the equation volume = a × b^2/2, where “a” is the maximal […] and “b” is maximal orthogonal width. After the administration were completed, mice were weighed, euthanized, and tumours were removed and the weight were taken.
For immunohistochemistry staining, the sections were deparaffinized, rehydrated, and washed in 1% PBS-Tween 20, and then treated with 2% hydrogen peroxide, blocked with 3% goat serum (Life Technology, 16210–064) and incubated for 2 h at room temperature with specific primary antibodies. Then the slides were incubated with streptavidin-HRP (Shanghai Gene Company, GK500705) for 40 min, then stained with DAB (Shanghai Gene Company, GK500705) substrate and counter-stained with haematoxylin. Images were acquired by microscopy (Olympus IX51).
In addition, we also utilised a B16F1 melanoma mouse xenograft model to observe the efficacy of compound 5d on the other tumours. Malignant melanoma is a highly invasive tumour and its immunotherapy has been receiving attention in recent years. As mentioned above, B16F1 is a murine melanoma cell line that expresses IDO1. The mouse xenograft model was established by subcutaneously implanting B16F1 melanoma cells into BALB/c mice and treated with 5d (3.125, 6.25, 12.5 mg/kg, i.g, every day) or the positive control Cis-platinum (1 mg/kg, i.p, every other day). Tumour volumes were measured every two days for 11 days.
Figure 13. Compound 5d suppressed melanoma growth in mice. 1 × 10^6 melanoma cells were transplanted subcutaneously into the armpit of the BALB/c mice. Three days after transplantation, mice were randomly allocated to vehicle control or treatment groups (n = 6). Drugs were administered on days 1–11. (A) Tumour volume and mouse body weight (B) were recorded. After sacrifice, solid tumours were separated and weighed (C, D). Data represent mean ± SEM, n = 6, *p < 0.05, **p < 0.01 vs vehicle.
Analogously, we also performed H&E, IHC and TUNEL experiments on the B16F1 melanoma tissues (Figure 14 and 15).

Q: How did the “IFN-γ expression (IHC)” value (B16F1 melanoma tissue) turn out when `C=CC(=O)Nc1ccc(S(=O)(=O)NCc2cccc(Cl)c2)cc1` [5d, N-(4-(N-(3-Chlorobenzyl)sulfamoyl)phenyl)acrylamide] was run?
A: up-regulating IFN-γ expression

Q: What about the “granzyme B (IHC)” value (B16F1 melanoma tissue) of the same compound?
A: stimulating granzyme B secretion

Q: And the “number of tumour cells (H&E, PCNA, TUNEL)” value (B16F1 melanoma tissue)?
A: reduce the number of tumour cells by inhibiting proliferation and inducing apoptosis

Q: What about the “tumour growth (tumour volume and tumour weight)” value (BALB/c mice, 3.125, 6.25, 12.5 mg/kg, i.g, every day, 11 days, vs vehicle) of the same compound?
A: significantly suppressed the growth of tumour in a dose-dependent manner

Q: What about the body weight (BALB/c mice, 3.125-12.5 mg/kg i.g, 11 days) of the same compound?
A: without significant body weight loss

Q: And the “reduction of average volume of tumour” value (BALB/c mice, high dose, 11 days)?
A: 34.3%
